# Measured values from patent publication US5380715A, “Ap4 A as a hypotensive agent” (Fujirebio Inc., priority 1992, dated 1995).
# “Also recorded” adds a separate entry of the source.
# What was measured:
# [1] = system: isolated rat heart; experiment: Protective effect on deoxygenation-induced cardiac damage (Langendorff heart); set-up: species or system male SD rats; settings: 1×10^-4 M, 33 min global ischemia; words
# Method: The protective effect of Ap4A against ischemia by use of a Langendorff heart (Aronson, CE. and Serlick, ER. Toxicol. Appl. Pharmac. 38, 479-488 (1976)) was tested.
# Deoxygenation-induced cardiac damage according to the method of Aronson & Serlich (Toxical. appl. Parmac. 38, 479-488, 1976) with slight modifications. Male SD rats (Charles River Japan Inc.) weighing 320 to 390 g were anesthetized with ether, and heart quickly isolated. The isolated rat heart was mounted and perfused with Krebs-Henselite solution (118 mM NaCl, 4.7 mM KCl, 2.5 mM CaCl2, 1.2 mM MgSO4, 1.2 mM KH2 PO4, 25 mM NaHCO3 and 10 mM glucose) bubbled with 95% O2 +5% CO2 at a flow rates of 14 ml/min. at 37° C. The myocardial function was monitored by the left ventricular pressure (L.V.P.), differential values of L.V.P. (dp/dt), heart rate (H.R.) and perfused pressure (P.P.) through a branch of an aortic canula mounted on the heart. After equilibrate for 40 min., global ischemia was produced by stopping the perfusing solution and the heart was incubated for 33 min. in 50 ml Krebs-Henselite bubble with N2 gas (control). 33 min. later, the buffer solution was removed. The perfusion was re-started, and the myocardial function was measured. The heart was incubated in Krebs-Henselite solution containing Ap4A 1×10^-4 M during global ischemia.
# [2] = system: dogs; experiment: Gradual hypotension during anesthesia in dogs (hemodynamics, blood gas); format: in vivo, mongrel dogs; settings: dog
# Method: Dogs were anesthetized with enflurane. […] The mean blood pressure (B.P.), heart rate (H.R.), cardiac output (C.O.), arterial oxygen tension (PaO2), mixed venos oxygen tension (PvO2), arterial carbonate tension (PaCO2), mixed venous carbonate tension (PvCO2), arterial pH (pH-a), mixed venous pH (pH-v), and base excess thereof were measured.
# Mongrel dogs weighing 9 to 17 kg were anesthetized with intravenous thiopental 20 mg/kg by bolus injection, followed by 1% enflurane in 40% O2 /N2 after endotracheal intubation. […] Bilateral femoral arteries were catheterized, one for the determination of blood pressure and the other for blood sampling.
# Access to the bilateral femoral veins was obtained for the administration of Ap4A, PG E1 or nitroglycerin and for the insertion of a ballon-tipped thermodilution catheter. The electrocardiogram was continuously monitored. The control values were obtained before the administration of each of the above-mentioned three agents. Each agent was administered using a syringe pump at titrated doses to produce gradual 20%, 40%, 50%, 60%, and 80% decreases in the mean arterial pressure (MAP) from the control value.
# After the target blood pressure and stable hemodynamic conditions were reached, the following parameters were measured: heart rate (HR), mean pulmonary artery pressure (PAM), pulmonary capillary wedge pressure (PCWP), and central venous pressure (CVP). Cardiac output (CO) was determined by the thermodilution method. Gas analyses of arterial and mixed venous bloods were performed using a blood gas analyzer.
# [3] = system: blood pressure; experiment: Gradual hypotension under halothane or urethane + α-chloralose anesthesia; format: in vivo; settings: halothane anesthesia; urethane (0.5 g/kg) + α-chloralose (80 mg/kg) anesthesia; words
# [4] = enflurane, at -20% blood pressure
# [5] = enflurane, at -40% blood pressure
# [6] = enflurane, at -50% blood pressure
# [7] = enflurane, at -60% blood pressure
# [8] = enflurane, at -80% blood pressure
smiles,measurement,setting,value
"Nc1ncnc2c1ncn2[C@@H]1O[C@H](COP(=O)(O)OP(=O)(O)OP(=O)(O)OP(=O)(O)OC[C@H]2O[C@@H](n3cnc4c(N)ncnc43)[C@H](O)[C@@H]2O)[C@@H](O)[C@H]1O [Ap4A, diadenosine 5',5'""-p^1,p^4 -tetraphosphate]","prevention of cardiac damage (loss of L.V.P., dp/dt and H.R.)",[1],"significantly prevented cardiac damage (loss of L.V.P., dp/dt and H.R.) induced by deoxygenation; also recorded: the above-mentioned impairment in the untreated Langendorff heart was found to be prevented"
same,fall in blood pressure attainable,[2]; enflurane,~60%
same,Arterial Carbonate Tension PaCO2,[2]; [4],36.0 ± 1.0 mmHg
same,Arterial Oxygen Tension PaO2,[2]; [4],252.8 ± 7.2 mmHg
same,Arterial pH (pH-a),[2]; [4],7.337 ± 0.013
same,Body Temperature BT,[2]; [4],37.2 ± 0.6 °C
same,Cardiac Output C.O.,[2]; [4],2.42 ± 0.25 L/min
same,Central Venous Pressure CVP,[2]; [4],3.77 ± 0.25 mmHg
same,Heart Rate H.R.,[2]; [4],160.1 ± 7.5 beats/min
same,Hematocrit Value Hct,[2]; [4],40.6 ± 2.1%
same,Mean Blood Pressure B.P. (mean),[2]; [4],104.3 ± 3.3
same,Mean Blood Pressure B.P. (Δ%),[2]; [4],-19.8 ± 0.4%
same,Mixed Venous Carbonate Tension PvCO2,[2]; [4],39.3 ± 1.2 mmHg
same,Mixed Venous Oxygen Tension PvO2,[2]; [4],61.6 ± 2.4 mmHg
same,Mixed Venous pH (pH-v),[2]; [4],7.308 ± 0.008
same,Pulmonary Artery Pressure PAM,[2]; [4],18.4 ± 1.5 mmHg
same,Pulmonary Capillary Wedge Pressure PCWP,[2]; [4],8.3 ± 1.3 mmHg
same,Base Excess BE,"[2]; enflurane, at -20% blood pressure (Table 1)",-5.39 ± 0.77 mBq-1
same,Arterial Carbonate Tension PaCO2,[2]; [5],35.3 ± 1.0 mmHg
same,Arterial Oxygen Tension PaO2,[2]; [5],253.8 ± 7.6 mmHg
same,Arterial pH (pH-a),[2]; [5],7.341 ± 0.018
same,Body Temperature BT,[2]; [5],37.3 ± 0.6 °C
same,Cardiac Output C.O.,[2]; [5],2.22 ± 0.15 L/min
same,Central Venous Pressure CVP,[2]; [5],3.89 ± 0.29 mmHg
same,Heart Rate H.R.,[2]; [5],154.9 ± 6.9 beats/min
same,Hematocrit Value Hct,[2]; [5],40.6 ± 1.7%
same,Mean Blood Pressure B.P. (mean),[2]; [5],78.2 ± 2.3
same,Mean Blood Pressure B.P. (Δ%),[2]; [5],-39.8 ± 0.4%
same,Mixed Venous Carbonate Tension PvCO2,[2]; [5],36.6 ± 1.3 mmHg
same,Mixed Venous Oxygen Tension PvO2,[2]; [5],63.3 ± 1.7 mmHg
same,Mixed Venous pH (pH-v),[2]; [5],7.311 ± 0.009
same,Pulmonary Artery Pressure PAM,[2]; [5],17.8 ± 1.6 mmHg
same,Pulmonary Capillary Wedge Pressure PCWP,[2]; [5],8.0 ± 1.2 mmHg
same,Base Excess BE,"[2]; enflurane, at -40% blood pressure (Table 1)",-5.52 ± 0.89 mBq-1
same,Arterial Carbonate Tension PaCO2,[2]; [6],35.0 ± 1.1 mmHg
same,Arterial Oxygen Tension PaO2,[2]; [6],252.5 ± 7.5 mmHg
same,Arterial pH (pH-a),[2]; [6],7.338 ± 0.011
same,Body Temperature BT,[2]; [6],37.2 ± 0.6 °C
same,Cardiac Output C.O.,[2]; [6],2.02 ± 0.16 L/min
same,Central Venous Pressure CVP,[2]; [6],3.64 ± 0.35 mmHg
same,Heart Rate H.R.,[2]; [6],144.0 ± 7.3 beats/min
same,Hematocrit Value Hct,[2]; [6],40.7 ± 1.7%
same,Mean Blood Pressure B.P. (mean),[2]; [6],65.4 ± 2.0
same,Mean Blood Pressure B.P. (Δ%),[2]; [6],-49.6 ± 0.4%
same,Mixed Venous Carbonate Tension PvCO2,[2]; [6],36.7 ± 1.4 mmHg
same,Mixed Venous Oxygen Tension PvO2,[2]; [6],60.5 ± 2.1 mmHg
same,Mixed Venous pH (pH-v),[2]; [6],7.308 ± 0.011
same,Pulmonary Artery Pressure PAM,[2]; [6],16.3 ± 1.4 mmHg
same,Pulmonary Capillary Wedge Pressure PCWP,[2]; [6],7.6 ± 1.2 mmHg
same,Base Excess BE,"[2]; enflurane, at -50% blood pressure (Table 1)",-5.77 ± 0.66 mBq-1
same,Arterial Carbonate Tension PaCO2,[2]; [7],34.6 ± 1.3 mmHg
same,Arterial Oxygen Tension PaO2,[2]; [7],253.8 ± 7.7 mmHg
same,Arterial pH (pH-a),[2]; [7],7.315 ± 0.010
same,Body Temperature BT,[2]; [7],37.2 ± 0.6 °C
same,Cardiac Output C.O.,[2]; [7],1.55 ± 0.20 L/min
same,Central Venous Pressure CVP,[2]; [7],3.63 ± 0.44 mmHg
same,Dose,[2]; [7],242.4 ± 32.8 µg/kg/min
same,Heart Rate H.R.,[2]; [7],131.6 ± 7.5 beats/min
same,Hematocrit Value Hct,[2]; [7],41.9 ± 2.2%
same,Mean Blood Pressure B.P. (mean),[2]; [7],51.7 ± 1.7
same,Mean Blood Pressure B.P. (Δ%),[2]; [7],-60.3 ± 0.2%
same,Mixed Venous Carbonate Tension PvCO2,[2]; [7],38.1 ± 1.8 mmHg
same,Mixed Venous Oxygen Tension PvO2,[2]; [7],54.9 ± 1.8 mmHg
same,Mixed Venous pH (pH-v),[2]; [7],7.292 ± 0.011
same,Pulmonary Artery Pressure PAM,[2]; [7],14.3 ± 1.1 mmHg
same,Pulmonary Capillary Wedge Pressure PCWP,[2]; [7],6.7 ± 10.9 mmHg
same,Base Excess BE,"[2]; enflurane, at -60% blood pressure (Table 1)",-7.30 ± 0.64 mBq-1
same,Arterial Carbonate Tension PaCO2,[2]; [8],37.5 ± 1.1 mmHg
same,Arterial Oxygen Tension PaO2,[2]; [8],245.6 ± 9.2 mmHg
same,Arterial pH (pH-a),[2]; [8],7.260 ± 0.010
same,Body Temperature BT,[2]; [8],37.4 ± 0.6 °C
same,Cardiac Output C.O.,[2]; [8],1.16 ± 0.11 L/min
same,Central Venous Pressure CVP,[2]; [8],3.51 ± 0.60 mmHg
same,Dose,[2]; [8],3895.2 ± 675.7 µg/kg/min
same,Heart Rate H.R.,[2]; [8],98.6 ± 4.7 beats/min
same,Hematocrit Value Hct,[2]; [8],42.8 ± 2.2%
same,Mean Blood Pressure B.P. (mean),[2]; [8],28.8 ± 1.0
same,Mean Blood Pressure B.P. (Δ%),[2]; [8],-77.8 ± 0.8%
same,Mixed Venous Carbonate Tension PvCO2,[2]; [8],44.4 ± 1.4 mmHg
same,Mixed Venous Oxygen Tension PvO2,[2]; [8],53.3 ± 2.8 mmHg
same,Mixed Venous pH (pH-v),[2]; [8],7.228 ± 0.014
same,Pulmonary Artery Pressure PAM,[2]; [8],14.3 ± 1.2 mmHg
same,Pulmonary Capillary Wedge Pressure PCWP,[2]; [8],7.4 ± 1.0 mmHg
same,Base Excess BE,"[2]; enflurane, at -80% blood pressure (Table 1)",-9.36 ± 0.79 mBq-1
same,effect on arterial pH / venous pH,[2]; result in words,does not decrease arterial pH and venous pH up to a less than 60% fall in blood pressure; also recorded: does not substantially decrease arterial pH in practical use
same,effect on base excess,[2]; result in words,does not make any significant changes in base excess
same,effect on carbonate tension,[2]; result in words,"tendency to decrease arterial carbonate tension (PaCO2), and mixed venous carbonate tension (PvCO2); also recorded: tendency to decrease arterial carbonate tension (PaCO2), mixed venous carbonate tension (PvCO2), or actually decreases PaCO2 and PvCO2"
same,effect on cardiac output,[2]; result in words,"cardiac output is significantly increased at a 20% fall in blood pressure; also recorded: tendency to significantly increase the cardiac output when a 20% fall in blood pressure is attained, and the cardiac output is continuously increased until a 60% fall in blood pressure is attained"
same,effect on heart rate,[2]; result in words,"when a 60% or more fall in blood pressure is attained, Ap4A is seem to have significant adverse effects on the heart rate; also recorded: significant effect on heart rate is that required for a 60% or more fall in blood pressure"
same,effect on oxygen tension,[2]; result in words,"tendency to increase arterial oxygen tension (PaO2), and mixed venous oxygen tension (PvO2); also recorded: tendency to increase arterial oxygen tension (PaO2), and mixed venous oxygen tension (PvCO2), or actually increases PaO2 and PvO2"
same,hypotensive effect compared with PG E1 / nitroglycerin,[2]; result in words,the same hypotensive effect as that of PG E1; also recorded: comparable with that of PG E1 and is better than that of nitroglycerin
same,gradual hypotensive effect,[3],almost the same gradual hypotensive effect
